Results taken from ChEMBL document CHEMBL1145474, “Selective phosphorylation of antiviral drugs by vaccinia virus thymidine kinase” (Antimicrob Agents Chemother, 2007).

B1: Thymidine kinase (Vaccinia virus (strain Western Reserve) (VACV) (Vaccinia virus (strainWR))), P68563 (protein)
chain: MNGGHIQLIIGPMFSGKSTELIRRVRRYQIAQYKCVTIKYSNDNRYGTGLWTHDKNNFEALEATKLCDVLESITDFSVIGIDEGQFFPDIVEFCERMANEGKIVIVAALDGTFQRKPFNNILNLIPLSEMVVKLTAVCMKCFKEASFSKRLGEETEIEIIGGNDMYQSVCRKCYIDS

Assays:
Vaccinia virus = test: microbe, parasite or virus in culture; assay type: functional, organism-based; conditions: Orthopoxvirus vaccinia, HFF, 1 h
Cowpox virus [1] = test: microbe, parasite or virus in culture; assay type: functional, organism-based; conditions: Brighton, HFF, 1 h
Cowpox virus [2] = test: microbe, parasite or virus in culture; assay type: functional, organism-based; conditions: HFF, 48 h
Cowpox virus [3] = test: microbe, parasite or virus in culture; assay type: functional, organism-based; conditions: HFF, 48 h; remark: listed apart in the source
Human alphaherpesvirus 1 [4] = test: microbe, parasite or virus in culture; assay type: functional, organism-based; conditions: Human alphaherpesvirus 1, E377, HFF, 72 h
Human alphaherpesvirus 1 [5] = test: microbe, parasite or virus in culture; assay type: functional, organism-based; conditions: Human alphaherpesvirus 1, DM2.1, HFF, 72 h
Human alphaherpesvirus 2 [6] = test: microbe, parasite or virus in culture; assay type: functional, organism-based; conditions: Human alphaherpesvirus 2, MS, HFF, 72 h
Human alphaherpesvirus 2 [7] = test: microbe, parasite or virus in culture; assay type: functional, organism-based; conditions: Human alphaherpesvirus 2, AG3, HFF, 72 h
Human alphaherpesvirus 3 = test: microbe, parasite or virus in culture; assay type: functional, organism-based; conditions: Human alphaherpesvirus 3, Ellen, HFF, 240 h
[8] = substrate: CC1(C)CC(=O)C2=C(C1)OC(N)=C(C#N)C2c1cn([C@H]2C[C@H](O)[C@@H](CO)O2)c(=O)[nH]c1=O; conditions: Orthopoxvirus vaccinia; WR
[9] = substrate: CCOC(=O)/C(C#N)=C/c1cn([C@H]2C[C@H](O)[C@@H](CO)O2)c(=O)[nH]c1=O; conditions: Orthopoxvirus vaccinia; WR
[10] = substrate: N#CC(C#N)=Cc1cn([C@H]2C[C@H](O)[C@@H](CO)O2)c(=O)[nH]c1=O; conditions: Orthopoxvirus vaccinia; WR
[11] = substrate: Nc1nc(=O)n([C@@H]2O[C@H](CO)[C@@H](O)[C@@H]2F)cc1I; conditions: Orthopoxvirus vaccinia; WR
[12] = substrate: O=c1[nH]c(=O)n([C@H]2C[C@H](O)[C@@H](CO)O2)cc1Br; conditions: Orthopoxvirus vaccinia; WR
[13] = substrate: O=c1[nH]c(=O)n([C@H]2C[C@H](O)[C@@H](CO)O2)cc1F; conditions: Orthopoxvirus vaccinia; WR
[14] = substrate: O=c1[nH]cc(C(F)(F)F)c(=O)[nH]1; conditions: Orthopoxvirus vaccinia; WR

Molecule | EC50 (Vaccinia virus) [µM] | EC50 (Cowpox virus [1]) [µM] | EC50 (Cowpox virus [2]) [µM] | EC50 (Cowpox virus [3]) [µM] | EC50 (Human alphaherpesvirus 1 [4]) [µM] | EC50 (Human alphaherpesvirus 1 [5]) [µM] | EC50 (Human alphaherpesvirus 2 [6]) [µM] | EC50 (Human alphaherpesvirus 2 [7]) [µM] | EC50 (Human alphaherpesvirus 3) [µM] | Km (Homo sapiens) [µM] | also measured
N#CC(C#N)=Cc1cn([C@H]2C[C@H](O)[C@@H](CO)O2)c(=O)[nH]c1=O | 17 | 21 | 46 | 1.9 | 11 | 14 | 11 | 12 | 15 | 113 | 
N#CC1=C(N)OC2=C(C(=O)CCC2)C1c1cn([C@H]2C[C@H](O)[C@@H](CO)O2)c(=O)[nH]c1=O (stereo partly specified) | 4.6 | 2 | 67 | 1.9 | 8.6 | 13 | 12 | 12 | 16 |  | 
Nc1ccn(C[C@@H](CO)OCP(=O)(O)O)c(=O)n1 [CIDOFOVIR] | 11 | 32 | 16 | 10 |  |  |  |  |  |  | 
CCOC(=O)/C(C#N)=C/c1cn([C@H]2C[C@H](O)[C@@H](CO)O2)c(=O)[nH]c1=O | 18 | 11 | 71 | 1.9 | 7.6 | 16 | 8.3 | 11 | 48 | 118 | 
O=c1[nH]cc(C(F)(F)F)c(=O)[nH]1 |  |  |  |  |  |  |  |  |  | 47 | 
O=c1[nH]c(=O)n([C@H]2C[C@H](O)[C@@H](CO)O2)cc1Br |  |  |  |  |  |  |  |  |  | 46 | 
O=c1[nH]c(=O)n([C@H]2C[C@H](O)[C@@H](CO)O2)cc1F |  |  |  |  |  |  |  |  |  | 96 | 
Nc1nc(=O)n([C@@H]2O[C@H](CO)[C@@H](O)[C@@H]2F)cc1I |  |  |  |  |  |  |  |  |  | > 135 | 
Nc1nc2c(ncn2COCCO)c(=O)[nH]1 [ACYCLOVIR] |  |  |  |  | 1.3 | > 444 | 3.1 | > 444 | 8.5 |  | 
O=c1[nH]c(=O)n([C@@H]2O[C@H](CO)[C@@H](O)[C@@H]2F)cc1I |  |  |  |  |  |  |  |  |  | 66 | 
CC1(C)CC(=O)C2=C(C1)OC(N)=C(C#N)C2c1cn([C@H]2C[C@H](O)[C@@H](CO)O2)c(=O)[nH]c1=O (stereo partly specified) | 7.9 | 8.4 | 67 | 3.1 | 7.3 | 17 | 13 | 14 | 9.2 | > 200 | 
Cc1cn([C@H]2C[C@H](O)[C@@H](CO)O2)c(=O)[nH]c1=O |  |  |  |  |  |  |  |  |  | 23 | 
O=c1[nH]c(=O)n([C@H]2C[C@H](O)[C@@H](CO)O2)cc1I [IDOXURIDINE] | 5.6 | 1.8 | 76 | 1.1 |  |  |  |  |  | 38 | 
B1 |  |  |  |  |  |  |  |  |  |  | Km [8]: 97 µM; Km [9]: 13 µM; Km [10]: 9.6 µM; Km [11]: > 135 µM; Km [12]: 30 µM; Km [13]: 113 µM; Km [14]: 14 µM
